These are literature values, as cited in patent US20170189443A1, “COMPOSITIONS AND METHODS FOR TREATMENT OF DISEASES AND CONDITIONS EMPLOYING ORAL ADMINISTRATION OF SODIUM PENTOSAN POLYSULFATE AND OTHER PENTOSAN POLYSULFATE SALTS” (URIGEN PHARMACEUTICALS, INC., priority 2014, published 2017).

Where two headings read alike, the source gives them in different places.

The test system of series [1] is interstitial cystitis. The following applies: intravesical instillations.
Series [2] concerns interstitial cystitis. The following applies: intravesical.
For series [3] the following is noted: tritiated pentosan polysulfate, healthy human volunteers, Simon et al. 2005.
The conditions of series [4]: oral administration.

With `C[S+](C)[O-]` [DMSO, dimethylsulfoxide], the “IC patients treated with benefit” value with interstitial cystitis [1] is recorded as roughly 50%.
In the case of `O=S(=O)(O)CCS` [Mesnex, mesna], the “frequency of adverse events (all AEs)” value (IV) was 85% and the “frequency of adverse events (all AEs)” value (oral) is reported as 89%.
As for heparin, in the series on interstitial cystitis [2], the “patients treated in whom the agent is effective” value is recorded as “approximately 50%”.
sodium pentosan polysulfate: in series [3], the excreted through urine is 6% and the “excreted unchanged in feces” value was “more than 94%”. The oral availability in series [4] is 2-6%.
